Experimental findings from ChEMBL document CHEMBL5357084, “Structure-Guided Discovery of Diverse Cytotoxic Dimeric Xanthones/Chromanones from Penicillium chrysogenum C-7-2-1 and Their Interconversion Properties” (J Nat Prod, 2024) are described below.

The subject of assay [1] is Caco-2. Put plainly: Cytotoxicity against human Caco-2 cells assessed as inhibition of cell growth measured after 48 hrs by MTT assay. In kind it is functional, cell-based. As to conditions: Caco-2, 48 h; call rule not given here.
The test system of assay [2] is NCI-H1299. Put plainly: Cytotoxicity against human NCI-H1299 cells assessed as inhibition of cell growth at 50 uM measured after 48 hrs by MTT assay relative to control. In kind it is functional. On the set-up: scale not given: the % may be the effect or the level left.
Assay [3] relates to NCI-H23. Put plainly: Cytotoxicity against human NCI-H23 cells assessed as inhibition of cell growth measured after 48 hrs by MTT assay. Type of assay: functional, cell-based. As to conditions: NCI-H23, 48 h.
Assay [4] deals with NCI-H23. Put plainly: Cytotoxicity against human NCI-H23 cells […] at 50 uM measured after 48 hrs by MTT assay relative to control. Type of assay: functional.
For assay [5], the system named is NCI-H1299. Put plainly: Cytotoxicity against human NCI-H1299 cells assessed as inhibition of cell growth measured after 48 hrs by MTT assay. Type of assay: functional, cell-based. The note with it: NCI-H1299, 48 h.
For assay [6], the system named is A-375. Put plainly: Cytotoxicity against human A-375 cells […] at 50 uM measured after 48 hrs by MTT assay relative to control. In kind it is functional.
The subject of assay [7] is A-375. Put plainly: Cytotoxicity against human A-375 cells assessed as inhibition of cell growth measured after 48 hrs by MTT assay. Type of assay: functional, cell-based. The note with it: A-375, 48 h.
Assay [8] concerns SW-620. Put plainly: Cytotoxicity against human SW620 cells assessed as inhibition of cell growth at 50 uM measured after 48 hrs by MTT assay relative to control. Type of assay: functional.
For assay [9], the system named is BEAS-2B. Put plainly: Cytotoxicity against human BEAS-2B cells assessed as inhibition of cell growth measured after 48 hrs by MTT assay. In kind it is functional, cell-based.
Assay [10] concerns SW-620. Put plainly: Cytotoxicity against human SW620 cells assessed as inhibition of cell growth measured after 48 hrs by MTT assay. Type of assay: functional, cell-based.
Assay [11] deals with BEAS-2B. Put plainly: Cytotoxicity against human BEAS-2B cells assessed as inhibition of cell growth at 50 uM measured after 48 hrs by MTT assay relative to control. In kind it is functional.
For assay [12], the system named is Caco-2. Put plainly: Cytotoxicity against human Caco-2 cells assessed as inhibition of cell growth at 50 uM measured after 48 hrs by MTT assay relative to control. In kind it is functional. Also on record: scale not given: the % may be the effect or the level left.
The test system of assay [13] is NCI-H23. Put plainly: Induction of cell cycle arrest in human NCI-H23 cells assessed as accumulation of cells at G1 phase at 5 uM incubated for 24 hrs by PI staining based flow cytometry analysis (reference value: 56.95+/-1.02%). Type of assay: functional.
For assay [14], the system named is NCI-H23. Put plainly: Induction of cell cycle arrest in human NCI-H23 cells assessed as accumulation of cells at S phase at 5 uM incubated for 24 hrs by PI staining based flow cytometry analysis (reference value: 15.45+/-1.79%). In kind it is functional.
The subject of assay [15] is NCI-H23. Put plainly: Induction of cell cycle arrest in human NCI-H23 cells assessed as accumulation of cells at SubG1 phase at 5 to 10 uM incubated for 24 hrs by PI staining based flow cytometry analysis (reference value: 0%). In kind it is functional. As to conditions: dose 5-10 µM.
Assay [16] concerns NCI-H23. Put plainly: Induction of apoptosis in human NCI-H23 cells assessed as apoptosis rate at 10 uM incubated for 24 hrs by annexin V-FITC and propidium iodide staining based flow cytometry analysis (reference value: 6.88+/-2.63%). In kind it is functional.
Assay [17] has as its system NCI-H23. Put plainly: Induction of apoptosis in human NCI-H23 cells assessed as apoptosis rate incubated for 24 hrs by annexin V-FITC and propidium iodide staining based flow cytometry analysis. As to conditions: dose 5-10 µM. Type of assay: functional, cell-based.
Assay [18] deals with NCI-H23. Put plainly: Induction of cell cycle arrest in human NCI-H23 cells assessed as accumulation of cells at G2/M phase at 5 uM incubated for 24 hrs by PI staining based flow cytometry analysis (reference value: 27.60+/-0.83%). In kind it is functional.
Assay [19] has as its system NCI-H23. Put plainly: Induction of apoptosis in human NCI-H23 cells assessed as apoptosis rate at 5 uM incubated for 24 hrs by annexin V-FITC and propidium iodide staining based flow cytometry analysis (reference value: 6.88+/-2.63%). Type of assay: functional.
The test system of assay [20] is NCI-H23. Put plainly: Induction of cell cycle arrest in human NCI-H23 cells assessed as accumulation of cells at G1 phase at 10 uM incubated for 24 hrs by PI staining based flow cytometry analysis (reference value: 56.95+/-1.02%). Type of assay: functional.
In assay [21] the test system is NCI-H23. Put plainly: Induction of cell cycle arrest in human NCI-H23 cells assessed as accumulation of cells at G2/M phase at 10 uM incubated for 24 hrs by PI staining based flow cytometry analysis (reference value: 27.60+/-0.83%). In kind it is functional.
Assay [22] relates to NCI-H23. Put plainly: Induction of cell cycle arrest in human NCI-H23 cells assessed as accumulation of cells at S phase at 10 uM incubated for 24 hrs by PI staining based flow cytometry analysis (reference value: 15.45+/-1.79%). In kind it is functional.
The mark [23] stands for this setting: Homo sapiens, SW-620, 48 h, read-out: IC50.

The structures appear in SMILES notation.

In the case of `COC(=O)[C@@]12Oc3c(-c4ccc(O)c5c4O[C@]4(C(=O)O)C(=C(O)C[C@@H](C)[C@@H]4O)C5=O)ccc(O)c3C(=O)C1=C(O)C[C@H](C)[C@@H]2O`, the IC50 in the assay on Caco-2 [1] was more than 50 µM; in the assay with NCI-H23 [3], 3.9 µM; in the assay with NCI-H1299 [5] it was 30.9 µM; with A-375 [7], more than 50 µM; in the assay with BEAS-2B [9] (beas-2b) it was “Not Active”; in the assay with SW-620 [10] (sw-620), “Not Active”. Also, the Activity in the assay on NCI-H1299 [2] came to 38.2%; with NCI-H23 [4], 6.7%; with A-375 [6], 84.1%; in the assay on Caco-2 [12] it was 73.2%. The “Cell growth relative to control” value in the assay on SW-620 [8] was 99.9%; in the assay on BEAS-2B [11] it was 155.5%.
Take `COC(=O)[C@@]12Oc3cc(C)c(-c4ccc5c(c4O)C(=O)C4=C(O)C[C@H](C)[C@H](O)[C@]4(C(=O)OC)O5)c(O)c3C(=O)C1=C(O)CC[C@H]2O`: the half-inhibitory concentration (IC50) in the assay on Caco-2 [1] is more than 50 µM; in the assay on NCI-H23 [3], 6.9 µM; in the assay with NCI-H1299 [5], more than 50 µM; with A-375 [7] it was more than 50 µM; in the assay with BEAS-2B [9] (beas-2b), “Not Active”; with SW-620 [10] (setting [23]) it was more than 50 µM. Besides, the Activity in the assay on NCI-H1299 [2] is listed as 76.4%; with NCI-H23 [4] it was 5.2%; with A-375 [6], 83.9%; in the assay on Caco-2 [12], 68.9%. The “Cell growth relative to control” value with SW-620 [8] came to 98.9%; in the assay with BEAS-2B [11], 155.8%.
For `COC(=O)[C@]1([C@H]2OC(=O)C[C@@H]2C)CC(=O)c2c(ccc(-c3ccc4c(c3O)C(=O)C[C@@](C(=O)OC)([C@H](O)[C@@H](C)CC(=O)O)O4)c2O)O1`, the half-maximal inhibitory concentration (IC50) in the assay on Caco-2 [1] is 25.9 µM; in the assay on NCI-H23 [3] it was more than 50 µM; with NCI-H1299 [5] it was more than 50 µM; with A-375 [7], more than 50 µM; in the assay on BEAS-2B [9] (beas-2b), “Not Active”; with SW-620 [10] (setting [23]) it was more than 50 µM. The Activity is on record as 76.4% in the assay on NCI-H1299 [2], 90.1% with NCI-H23 [4], 63% in the assay on A-375 [6] and 46.8% in the assay with Caco-2 [12]. Besides, the “Cell growth relative to control” value in the assay on SW-620 [8] turned out to be 70.5%; in the assay on BEAS-2B [11], 158.7%.
Regarding `CNC(=O)c1cc(Oc2ccc(NC(=O)Nc3ccc(Cl)c(C(F)(F)F)c3)cc2)ccn1` [SORAFENIB], the concentration for half-maximal inhibition (IC50) in the assay with Caco-2 [1] amounted to 1.3 µM; in the assay on NCI-H23 [3] it was 2.4 µM; with NCI-H1299 [5], 3.4 µM; in the assay with A-375 [7], 1.8 µM; with BEAS-2B [9] (Homo sapiens, BEAS-2B, 48 h, read-out: IC50), 31.6 µM; in the assay with SW-620 [10] (setting [23]) it was 2.3 µM.
Take `COC(=O)[C@]12Oc3ccc(-c4ccc5c(c4O)C(=O)C4=C(O)C[C@@H](C)[C@H](O)[C@@]4(C(=O)OC)O5)c(O)c3C(=O)C1=C(O)C[C@@H](C)[C@@H]2O` [SECALONIC ACID A]: the IC50 in the assay with Caco-2 [1] was more than 50 µM; in the assay on NCI-H23 [3] it was 2.6 µM; in the assay with NCI-H1299 [5] it was more than 50 µM; with A-375 [7] it was more than 50 µM; in the assay with BEAS-2B [9] (beas-2b), “Not Active”; with SW-620 [10] (setting [23]) it was more than 50 µM. In addition, the Activity in the assay on NCI-H1299 [2] was 73.6%; in the assay on NCI-H23 [4], 8.7%; in the assay on A-375 [6], 75.6%; in the assay on Caco-2 [12], 54.5%. Besides, the “Cell growth relative to control” value in the assay on SW-620 [8] was 80.1%; in the assay on BEAS-2B [11], 107.3%.
For `COC(=O)[C@@]12Oc3ccc(-c4ccc(O)c5c4O[C@]4(C(=O)OC)C(=C(O)C[C@H](C)[C@@H]4O)C5=O)c(O)c3C(=O)C1=C(O)C[C@H](C)[C@H]2O`, the IC50 in the assay on Caco-2 [1] was more than 50 µM; in the assay with NCI-H23 [3], 6.4 µM; in the assay with NCI-H1299 [5], more than 50 µM; in the assay on A-375 [7], more than 50 µM; with BEAS-2B [9] (beas-2b), “Not Active”; in the assay on SW-620 [10] (sw-620) it was “Not Active”. Also, the Activity with NCI-H23 [13] is on record as 46.56%; in the assay with NCI-H1299 [2], 64.9%; in the assay with NCI-H23 [14], 15%; with NCI-H23 [15] it was 0%; with NCI-H23 [4] it was 7.2%; with NCI-H23 [16] it was 60.11%. Besides, the Activity result is “Dose-Dependent Effect” with NCI-H23 [17]; 38.43% in the assay on NCI-H23 [18]; 45.71% in the assay with NCI-H23 [19]; 75% with A-375 [6]; 38.68% in the assay on NCI-H23 [20]; 70.2% in the assay on Caco-2 [12]. In addition, the results for the Activity with NCI-H23 [21] and with NCI-H23 [22] were 52.48% and 8.85%, respectively. In addition, the “Cell growth relative to control” value with SW-620 [8] was determined as 98.6%; with BEAS-2B [11], 151.6%.
